Assay results: patent US20150087969A1, “SYSTEMS AND METHODS FOR OPTICALLY GUIDED PLACEMENT AND MONITORING OF MEDICAL IMPLANTS” (Children's National Medical Center, priority 2013, published 2015)

Columns and labels:
[1] = tested on: Human Umbilical Vein Endothelial (HUVEC) cells; experiment: Biocompatibility (toxicity) in direct contact with endothelial cells, alamar blue and Calcein AM/propidium iodide; assay type: cell-based
Procedure: According to another embodiment of disclosure, biocompatibility studies are conducted to determine the toxicity of TPU Composite in direct contact with endothelial cells as well as the adhesion of endothelial cells to the TPU Composite. Pressed films (Plain TPU and TPU Composite) are sterilized by washing in 1×PBS for 24 hours under constant agitation, followed by a 30 minute soak in 100% ethanol and two 1 hour rinses with PBS. Biocompatibility studies include 12 well cell bind plates being seeded with Human Umbilical Vein Endothelial (HUVEC) cells (passage 4-10, cultured in complete endothelial growth medium EGM Bulletkit, LONZA) at a density of 100 cells/cm^2 for 12 hours to allow for adhesion [37° C., 5% CO2]. Films (19 mm) are placed in direct contact to the cells and incubated for an additional 72 hours, replacing media daily. Toxicity is quantitatively analyzed with alamar blue according to manufacturer's protocol. Briefly, 100 μL of alamar blue is added to the media and allowed to incubate for 1.5 hours. Fluorescence of each alamar blue was read at excitation 545 nm, emission 590 nm. Films are removed from wells and cells are stained with Calcein AM and propidium iodide according to manufacturer's protocol, fixed with 4% paraformaldehyde for 1 hour and rinsed three times with PBS for qualitative analysis of cell death. Cells are imaged with fluorescent confocal imaging (Zeiss) for proliferation, morphology changes and viability. The process is repeated with 0.025 wt % IRDye 800CW in media, cells with media as a positive control, and cells with 70% ethanol in media as a negative control.

[2] = Stability of IRDye 800CW fluorescent signal in PBS at 37° C.; assay type: physicochemical; conditions: PBS at 37° C. with gentle agitation, 12 days
Procedure: According to another embodiment of the disclosure, in order to determine the long-term effect of being implanted in vivo, catheters are leached in phosphate buffered saline powder (PBS) for 23 days to determine the amount of dye retained within the matrix. TPU Composite tubes are cut into thin slices, weighed, and added to a black 96 well plate containing 200 μl PBS. Leaching of IRDye 800CW from the TPU Composite (n=8) is analyzed under physiological conditions (pH ˜7.4, 37° C., with gentle agitation) in a water bath. The water bath is covered to prevent photo-bleaching. Each day, tubes can be transferred to the successive well containing PBS, and the previous day is analyzed using a micro-plate reader with excitation at 765 nm, emission at 794 nm and a sensitivity of 100. […] Further, to determine the amount of IRDye 800CW retained, a calibration curve containing serial dilutions of IRDye 800CW in PBS is used (0 to 0.00030 wt %) (R^2=0.99). Additionally, 10 mL of IRDye 800CW in PBS is placed in the water bath and 100 μL aliquots are analyzed per day for signs of signal degradation due to heat.
The retention analysis of IR Dye 800 CW within TPU matrix of FIG. 17 includes a 6.35% of the IR Dye 800 CW being released from the polymer over 23 days. […]

[3] = Thermal degradation by thermogravimetric analysis (TGA); assay type: physicochemical; conditions: TGA in nitrogen gas at 20° C./min (n=3)
Procedure: According to an embodiment, aromatic polyether-based medical grade thermoplastic polyurethane (TPU) pellets can be mixed with and without IRDye 800CW to form TPU Composite and Plain TPU using a hydraulic platen press. […] The temperature at which the samples begin to decrease sharply in weight is determined to be their degradation point. According to an embodiment, thermal degradation temperatures are evaluated using a Q50 Thermogravimetric Analyzer (TGA), wherein the analysis is conducted in nitrogen gas at 20° C./min (n=3), where n is the number of times the experiment has been performed.
Furthermore, the degradation temperatures are considerably higher than the processing temperature of TPU (195° C.).

[4] = tested on: Human Umbilical Vein Endothelial (HUVEC) cells; experiment: Endothelial cell adhesion to films; assay type: cell-based; conditions: HUVECs seeded on films, one hour, Calcein AM/propidium iodide
Procedure: To determine if endothelial cells bind to the catheters, 19 mm films are cut and affixed to the bottom of suspension 12-well culture plates with 50 μL of 10 mg/mL collagen Type I isolated from rat tails. Plates are incubated for 30 minutes to allow for collagen polymerization. Films are seeded with 100 cells/cm^2 and incubated for one hour. Wells are washed with PBS to remove non-adherent cells and stained with Calcein AM and propidium iodide to aid in visualization of cell binding. The number and cell health of adherent cells is analyzed with fluorescence microscopy and compared to positive (collagen plates) and negative (Teflon) controls.
In order to be a viable biomaterial, cell adhesion should be minimal in order to avoid excess damage when removing or inserting the PICC.

Compound | Normalized Viability ([1]; 0.025 wt % in media, HUVECs, 72 hours, alamar blue, normalized to media control) | cell viability (statistics) ([1]; 72 hour incubation of HUVECs, IRDye 800CW at 0.025 wt %) | cell morphology or proliferation rates ([1]; Calcein AM and Propidium Iodide staining, HUVECs) | fluorescent signal stability in PBS [2] | thermal degradation temperature [3] [°C] | cell adherence (qualitative, cell shape) [4]
CC1(C)C(=CC=C2CCCC(C=CC3=[N+](CCCCCC(=O)[O-])c4ccc(S(=O)(=O)[O-])cc4C3(C)C)=C2Oc2ccc(S(=O)(=O)[O-])cc2)N(CCCCS(=O)(=O)[O-])c2ccc(S(=O)(=O)[O-])cc21.[Na+].[Na+].[Na+].[Na+] [IRDye 800CW] | 91.27 ± 8.54 | no statistical difference | no apparent change | no observed decrease in the fluorescent signal | 308±10 | 
Collagen I: collagen Type I isolated from rat tails, positive control for cell adhesion |  |  |  |  |  | preferentially adhered
